Experimental data: US9371274B2, “Compound having read-through activity” (The University of Tokyo, priority 2011, dated 2016)
Entries after “also recorded” stand apart in the source; their conditions may differ.

Test system: not given
Experiment: not given
Settings: prior knowledge; cited from earlier work

Row | Structure (SMILES) | antimicrobial activity (in words)
1 | CN(CC(=O)O)NC(=O)C[C@H](N)C[C@@H](O)CN [negamycin, methylhydrazinoacetic acid-linked δ-hydroxy-β-lysine, reference compound] | high antimicrobial activity
2 | CC(C)C[C@H](N)C(=O)N[C@@H](CC(=O)CN)CC(=O)NN(C)CC(=O)O [3-N-leucyl-3-epi-5-dehydronegamycin] | no antimicrobial activity
3 | CN(CC(=O)O)NC(=O)CC(N)CCCN (stereo not drawn) [3-Epi-5-dehydroxynegamycin] | weak antimicrobial activity

Test system: premature stop codon
Experiment: Read-through activity stated in the description, test not specified
Settings: statement of the inventors' finding, no test named

Row | Structure (SMILES) | read-through activity (in words)
4 | CN(CC(=O)O)NC(=O)CC(N)CC(O)CN (stereo not drawn) [5-epi-negamycin] | has read-through activity
5 | CC(C)C[C@H](N)C(=O)N[C@@H](CC(=O)CN)CC(=O)NN(C)CC(=O)O [3-N-leucyl-3-epi-5-dehydronegamycin] | potent read-through activity

Test system: reporter gene with premature stop codon (TGA) in COS-7 cells
Experiment: In vitro read-through activity, COS-7 cells transfected with β-galactosidase/luciferase reporter gene
Format: cell-based, African green monkey
Settings: COS-7, TGA reporter, compared with negamycin
Method: African green monkey SV40-transformed kidney fibroblast cell line (COS-7) was sown in 100×20 mm cell culture dishes manufactured by Falcon and cultured at 37° C. in 5% CO2. Fifty milliliters of fetal bovine serum (FBS) was added to 500 mL of D-MEM (containing high glucose, L-glutamine, and phenol red) manufactured by Wako Pure Chemical Industries Ltd., and culture broth prepared to adjust to 10% FBS was used as the culture broth. (Referred to hereinafter as culture broth.)
The Reporter Lysis Buffer 5×, assay 2× buffer, 1 M Na2CO3, and standard used in creation of the calibration curve referred to hereinafter are included in the β-Galactosidase Enzyme Assay System with Reporter Lysis Buffer manufactured by Promega.
COS-7 cells (8.0×10^3 cells/well) were seeded by continuous dispensing of 100 μL each into flat-bottom 96-well plates (Costar (registered trade mark) 3596) manufactured by Corning and incubated for 15-16 hours at 37° C.
A quantity of 4 μL/well of DNA solution prepared in a ratio of 1.32 μL (2 μg) of reporter gene (a construct obtained by linking a β-galactosidase gene and a luciferase gene and inserting a premature stop codon (TGA) at their juncture), 100 μL of OPTI-MEM (registered trade mark) I (Reduced Serum Medium 1×) manufactured by Invitrogen, and 4 μL of FuGENE (registered trade mark) HD Transfection Reagent manufactured by Roche was added to the solution and incubated for 10-11 hours at 37° C.
The entire culture broth was aspirated, and the compound to be evaluated was prepared to adjust to 200 μM by culture broth and added by continuously dispensing 200 μL/well. 100 μM and 50 μM were also prepared in the same way and added by continuously dispensing 200 μL each. Incubation was carried out for 48 hours at 37° C. after addition.
After 48 hours had elapsed, the entire culture broth in the well was aspirated and washed twice with PBS. The Reporter Lysis Buffer 5× was then diluted by MilliQ, and a solution prepared to adjust to Reporter Lysis Buffer l× was added by continuously dispensing 100 μL each and allowed to stand for 15 minutes at room temperature. The contents of each well were recovered thereafter, and the entire amount was transferred to Nunc microwell plates (V bottom) manufactured by Thermo Fisher Scientific and centrifuged (1800 rpm, 15 minutes). Eighty-five microliters of this lysate was transferred to Nunc low-binding 96-well plates (flat bottom) clear manufactured by Thermo Fisher Scientific.
Using Nunc low-binding 96-well plates (flat bottom) clear manufactured by Thermo Fisher Scientific, 30 μL/well of Reporter Lysis Buffer l× was added by dispensing continuously, followed by addition of 20 μL of the recovered lysate to make 50 μL. Separately, the standard required for creation of a calibration curve was added to make 0, 1, 2, 3, 4, and 5 mU according to the protocol of the β-Galactosidase Enzyme Assay System with Reporter Lysis Buffer manufactured by Promega. A quantity of 50 μL of Assay 2× buffer was added to each of these wells and incubated for 25 minutes at room temperature. A quantity of 150 μL/well of 1M Na2CO3, a reaction-stopping solution, was added, and the […] (420 nm, reference […]) was measured immediately using an absorption/fluorescence microplate reader Tecan Safire manufactured by Tecan. A calibration curve was created from the absorbance of the standard, and the absorbance converted to mU according to this calibration curve was taken as the activity value.
A quantity of 50 μL/well of the recovered lysate was added to 96-well white plates (Costar (registered trade mark) 3912) manufactured by Corning and incubated for five minutes at room temperature after adding 100 μL of PicaGene (registered trade mark) manufactured by Toyo Ink Co., Ltd. After five minutes, the emission intensity was measured by a Berthold luminometer MicroLumat Plus LB96V manufactured by Berthold Japan. […]

Row | Structure (SMILES) | read-through activity / read-through efficiency (FIG. 1-3, in words)
6 | CC(C)C[C@H](N)C(=O)N[C@@H](CCCN)CC(=O)NN(C)CC(=O)O [Example Compound 7, 2-(2-((S)-6-amino-3-((S)-2-amino-4-methylpentanamide)hexanoyl)-1-methylhydrazinyl)acetic acid] | remarkably high read-through efficiency in comparison even to negamycin
7 | CN(CC(=O)O)NC(=O)C[C@@H](N)CCCN [Example Compound 2, (S)-2-(2-(3,6-diaminohexanoyl)-1-methylhydrazinyl)acetic acid] | remarkably high read-through efficiency in comparison even to negamycin
8 | CN(CC(=O)O)NC(=O)C[C@@H](N)CCN [Example Compound 3, (S)-2-(2-(3,5-diaminopentanoyl)-1-methylhydrazinyl)acetic acid] | remarkably high read-through efficiency in comparison even to negamycin; also recorded: read-through efficiency equal to or greater than that of negamycin
9 | CCOC(=O)CN(C)NC(=O)C[C@@H](N)CCCN [Example Compound 5, (S)-ethyl 2-(2-(3,6-diaminohexanoyl)-1-methylhydrazinyl)acetate] | remarkably high read-through efficiency in comparison even to negamycin

Same assay, conditions: same method as Example 16; luciferase activity divided by β-galactosidase activity; 48 hours incubation; concentration for these values not given

Row | Structure (SMILES) | Read-through Activity
10 | CN(CC(=O)O)NC(=O)C[C@H](N)C[C@@H](O)CN [negamycin, methylhydrazinoacetic acid-linked δ-hydroxy-β-lysine, reference compound] | 1.53±0.04
11 | CN(CC(=O)O)NC(=O)C[C@H](CCN)NC(=O)[C@@H](N)CCCN [compound 46] | 1.60 ± 0.13
12 | C[C@H](N)C(=O)N[C@@H](CCN)CC(=O)NN(C)CC(=O)O [compound 36] | 1.92 ± 0.40
13 | CN(CC(=O)O)NC(=O)C[C@@H](N)CCNS(C)(=O)=O [compound 32] | 1.24 ± 0.09
14 | CC[C@H](C)[C@H](N)C(=O)N[C@@H](CCN)CC(=O)NN(C)CC(=O)O [compound 38] | 1.75 ± 0.19
15 | CCCCCNCC[C@H](N)CC(=O)NN(C)CC(=O)O [compound 27] | 1.64 ± 0.12
16 | CN(CC(=O)O)NC(=O)C[C@@H](N)CCNCc1ccccc1 [compound 28] | 1.40 ± 0.04
17 | CN(CC(=O)O)NC(=O)C[C@H](CCCN)NC(=O)CN [compound 17] | 2.10 ± 0.90
18 | CN(CC(=O)O)NC(=O)C[C@@H](N)CCNCc1ccccc1 [compound 33] | 2.34 ± 0.11
19 | CN(CC(=O)OCc1ccccc1Br)NC(=O)C[C@@H](N)CCN [compound 20] | 7.07 ± 0.45
20 | CN(CC(=O)O)NC(=O)C[C@H](CCN)NC(=O)[C@@H](N)Cc1ccc(O)cc1 [compound 39] | 1.63 ± 0.14
21 | CC(C)[C@H](N)C(=O)N[C@@H](CCCN)CC(=O)NN(C)CC(=O)O [compound 16] | 1.87 ± 0.29
22 | CN(CC(=O)O)NC(=O)C[C@H](CCN)NC(=O)[C@@H](N)CCCCN [compound 42] | 2.14 ± 0.18
23 | CN(CC(=O)OCc1ccccc1Br)NC(=O)C[C@@H](N)CCN [compound 25] | 1.26 ± 0.07
24 | CCOC(=O)N(CC(=O)O)NC(=O)C[C@@H](N)CCCN [compound 15] | 1.92 ± 0.21
25 | CN(CC(=O)O)NC(=O)C[C@H](CCN)NC(=O)[C@@H](N)CCN [compound 40] | 1.50 ± 0.05

Row | Structure (SMILES) | Read-through Activity
26 | CN(CC(=O)O)NC(=O)C[C@H](CCN)NC(=O)CN [compound 37] | 2.78 ± 0.67
27 | CN(CC(=O)O)NC(=O)C[C@@H](N)CCNC(=O)CN [compound 34] | 2.00 ± 0.13
28 | CC(C)C[C@@H](N)C(=O)N[C@@H](CCCN)CC(=O)NN(C)CC(=O)O [compound 23] | 5.65 ± 0.09
29 | CN(CC(=O)O)NC(=O)C[C@H](CCCN)NC(=O)[C@@H](N)Cc1ccccc1 [compound 14] | 2.13 ± 0.08
30 | CN(CC(=O)O)NC(=O)C[C@@H](N)CCNC(=O)CN [compound 29] | 2.84 ± 0.06
31 | CC(C)[C@H](N)C(=O)N[C@@H](CCN)CC(=O)NN(C)CC(=O)O [compound 35] | 3.09 ± 0.62
32 | CN(CC(=O)OCc1ccc(Br)cc1)NC(=O)C[C@@H](N)CCN [compound 22] | 5.18 ± 0.04
33 | CN(CC(=O)OCc1ccccc1)NC(=O)C[C@@H](N)CCN [compound 24] | 3.89 ± 0.16
34 | CC[C@H](C)[C@H](N)C(=O)N[C@@H](CCN)CC(=O)NN(C)CC(=O)O [compound 43] | 2.20 ± 0.05
35 | CC(C)C[C@@H](N)C(=O)N[C@@H](CCCN)CC(=O)NN(C)CC(=O)O [compound 18] | 1.30 ± 0.09
36 | C[C@H](N)C(=O)N[C@@H](CCN)CC(=O)NN(C)CC(=O)O [compound 41] | 1.57 ± 0.05
37 | CN(CC(=O)O)NC(=O)C[C@H](CCCN)NC(=O)[C@@H](N)Cc1ccccc1 [compound 19] | 3.25 ± 0.07
38 | CN(CC(=O)O)NC(=O)C[C@H](CCN)NC(=O)[C@@H](N)CCN [compound 45] | 1.65 ± 0.18
39 | CCCNCC[C@H](N)CC(=O)NN(C)CC(=O)O [compound 26] | 1.44 ± 0.04
40 | CN(CC(=O)O)NC(=O)C[C@H](CCN)NC(=O)[C@@H](N)CC(=O)O [compound 44] | 1.58 ± 0.05

Test system: transgenic mice with luciferase gene and β-galactosidase gene as reporter genes
Experiment: In vivo read-through activity in reporter transgenic mice (rectus femoris and gastrosoleus muscle)
Settings: subcutaneous, every 24 hours for seven consecutive days; muscle excised on the eighth day
Method: Transgenic mice were produced by introducing a luciferase gene and […] gene as reporter genes by the method described in International Publication WO2008/004610 pamphlet.
A physiological saline solution of example compound 2 synthesized in Example 1 was administered subcutaneously to the abdomen of the transgenic mice produced every 24 hours for seven consecutive days. On the eighth day, the rectus femoris and the gastrosoleus muscle of the mice were excised. After mincing by ophthalmological scissors, three times the wet weight of Reporter Lysis Buffer (Promega, US) was added, and the tissue was disrupted by Physcotron (Niti-on Co., Ltd.). After freezing overnight and thawing, the supernatant obtained by centrifugation was introduced into a 96-well plate, and the β-galactosidase activity was measured by a Beta-Glo Assay System (Promega, US) and the luciferase activity was measured by a Bright-Glo Assay System (Promega, US). A luminometer (ATTO) was used in measurement. The luciferase activity value was divided by the […] activity value, and the value multiplied by 10^4 was taken as the read-through efficiency.

Row | Structure (SMILES) | read-through activity in vivo (FIG. 4, in words)
41 | CN(CC(=O)O)NC(=O)C[C@@H](N)CCCN [Example Compound 2, (S)-2-(2-(3,6-diaminohexanoyl)-1-methylhydrazinyl)acetic acid] | high read-through activity even in comparison to gentamicin and 5-epi-negamycin
